Source: patent US20050010123A1, “Process for measuring QT intervals and constructing composite histograms to compare groups” (priority 2003, published 2005)

Assay: Beat-to-beat QTc interval histograms from 24-hour ambulatory ECG (Holter) recordings
Format: in vivo, patients
Description: An example of this type of device is a Reynolds Medical Tracker II (Reynolds Medical, Hertford UK) recorder. […] For QT interval analysis, the sample rate can be between 128 and 2000 samples per seconds. The preferred embodiment is the use of a sample rate of at least of at least 1000 samples per second. These digital recorders must also be compatible with a Holter playback system that can produce beat-to beat interval measurements. An example of this type of device is the Reynolds Medical LifeCard CF recorder (Reynolds Medical, Hertford, UK). An example of the compatible Holter playback system is the Reynolds Medical Pathfinder 700 series. […]
Using the digitized file of the electrocardiogram, a QT interval analysis may be accomplished in the following manner: The onset of a Q-wave (Qb) may be defined and a cursor may be placed at this point. […] The data from the digital file may then be replayed at 60-times normal time, while the cursors on the Qb and Te points may be monitored for stability. […] The QT intervals may be measured for the entire AECG recording on a beat-to-beat basis. […]
The peak of an R-wave may be detected and a third cursor may be placed (Rp). […]
In the examples described herein QTc was calculated by removing a time-series of the QT and preceding R--R intervals to a high-speed computer with both a fast processor and adequate disk storage space. […]

COc1cc(N)c(Cl)cc1C(=O)NC1CCN(CCCOc2ccc(F)cc2)CC1OC (centres unmarked) [cisapride, Cisapride]
mean QTc interval (QTc interval histogram of a single patient taking cisapride (FIG. 3), 24 hour AECG): 440 ms
mean QTc (composite curve of subjects on drug therapy (FIG. 4: subjects on cisapride), normal subjects 409 msec, ILQT 475 msec): 430 ms
